From patent US11234988B2, “Fluorohydroxyproline derivatives useful in the preparation of proteolysis targeted chimeras” (UNIVERSITY OF DUNDEE, priority 2016, dated 2022)

Key:
VBC complex = VBC complex (Homo sapiens, UniProt P40337); assay: Isothermal titration calorimetry (ITC) of VHL ligands against VBC; type: binding; settings: FIG. 3
Protocol: ITC Data on the Binding of VHL Ligands 14b and 14d
Titrations were performed on an ITC200 micro-calorimeter (GE Healthcare). Compounds 14b and 14d were diluted from a DMSO stock solution to 0.6 mM in a 20 mM HEPES, 150 mM NaCl, 1 mM TCEP (pH 7) buffer. The compound was titrated against 60 μM VBC complex, equilibrated in the same buffer. Total amount of DMSO in the buffer was 3%. The data were fitted to a single binding site model to obtain the stoichiometry n, the dissociation constant Kd and the enthalpy of binding ΔH using the Microcal LLC ITC200 Origin software provided by the manufacturer.

VHL = VHL (Homo sapiens, UniProt P40337); settings: as reported in Galdeano et al. 2014 and Zengerle et al. 2015; cited from earlier work
BRD4 = settings: Zengerle et al. 2015; cited from earlier work

VBC complex, sequence (P40337 54-213 limits assumed): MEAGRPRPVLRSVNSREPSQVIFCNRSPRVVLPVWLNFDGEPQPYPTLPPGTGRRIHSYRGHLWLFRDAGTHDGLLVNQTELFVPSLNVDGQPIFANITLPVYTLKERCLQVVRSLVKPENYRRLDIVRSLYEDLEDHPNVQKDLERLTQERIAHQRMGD
VBC complex, sequence (Q15370 1-104 partner limits assumed): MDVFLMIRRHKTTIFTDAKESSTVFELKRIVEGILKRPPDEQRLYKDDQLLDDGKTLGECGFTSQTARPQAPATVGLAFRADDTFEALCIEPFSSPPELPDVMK
VBC complex, sequence (Q15369 17-112 partner limits assumed): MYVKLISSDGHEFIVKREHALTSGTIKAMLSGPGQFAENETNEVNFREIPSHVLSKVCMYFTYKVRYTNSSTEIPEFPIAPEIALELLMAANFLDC
VHL, sequence (P40337 54-213 limits assumed): as the sequence (P40337 54-213 limits assumed) above
VHL, sequence (Q15370 1-104 partner limits assumed): as the sequence (Q15370 1-104 partner limits assumed) above
VHL, sequence (Q15369 17-112 partner limits assumed): as the sequence (Q15369 17-112 partner limits assumed) above

Row | SMILES | Kd (VBC complex) [nM] | ΔH (VBC complex) [kcal/mol] | ΔS (VBC complex) [cal/mol/deg] | binding to VHL (VHL) | removal of BRD4 over BRD2 and BRD3 (BRD4)
1 | CC(=O)N[C@H](C(=O)N1C[C@H](O)[C@@H](F)[C@H]1C(=O)NCc1ccc(-c2scnc2C)cc1)C(C)(C)C [Compound 14d] | 235 | -6.566 | 8.30 |  | 
2 | Cc1ncsc1-c1ccc(CNC(=O)[C@@H]2C[C@@H](O)CN2C(=O)[C@@H](NC(=O)COCCOCCOCCNC(=O)C[C@@H]2N=C(c3ccc(Cl)cc3)c3c(sc(C)c3C)-n3c(C)nnc32)C(C)(C)C)cc1 [MZ1, (2S,4R)-1-((S)-2-(tert-butyl)-17-((S)-4-(4-chlorophenyl)-2,3,9-trimethyl-6H-thieno[3,2-f][1,2,4]triazolo[4,3-a][1,4]diazepin-6-yl)-4,16-dioxo-6,9,12-trioxa-3,15-diazaheptadecanoyl)-4-hydroxy-N-(4-(4-methylthiazol-5-yl)benzyl)pyrrolidine-2-carboxamide] |  |  |  | found to bind VHL | potently and rapidly induce reversible, long-lasting and unexpectedly selective removal of BRD4 over BRD2 and BRD3
3 | CC(=O)N[C@H](C(=O)N1C[C@H](O)[C@H](F)[C@H]1C(=O)NCc1ccc(-c2scnc2C)cc1)C(C)(C)C [Compound 14b] | 235 | -6.566 | 8.30 |  | 
4 | Cc1ncsc1-c1ccc(CNC(=O)[C@@H]2C[C@H](O)CN2C(=O)[C@@H](NC(=O)COCCOCCOCCNC(=O)C[C@@H]2N=C(c3ccc(Cl)cc3)c3c(sc(C)c3C)-n3c(C)nnc32)C(C)(C)C)cc1 [cisMZ1, (2S,4S)-1-((S)-2-(tert-butyl)-17-((S)-4-(4-chlorophenyl)-2,3,9-trimethyl-6H-thieno[3,2-f][1,2,4]triazolo[4,3-a][1,4]diazepin-6-yl)-4,16-dioxo-6,9,12-trioxa-3,15-diazaheptadecanoyl)-4-hydroxy-N-(4-(4-methylthiazol-5-yl)benzyl)pyrrolidine-2-carboxamide] |  |  |  | did not exhibit any measureable binding affinity for VHL | 
